Patent US20220105127A1, “METHODS FOR PROVIDING THE BENEFITS OF METHIONINE RESTRICTION WITHOUT DIETARY RESTRICTION” (priority 2020, published 2022)

Key:
Assay type in all cases: in vivo, mouse
C57BL/6J mice = test: Experiment 2: high-fat diet with first compounds, body mass and inguinal/perigonadal fat pad mass; conditions: high-fat diet 9 weeks, untreated = 100%, lysine 6.45%; for Total Body Mass, Females / Inguinal Fat Mass, Females / Perigonadal Fat Mass, Females: female mice; for Total Body Mass, Females / Total Body Mass, Males: O-benzyl serine 4.3%, S-phenyl cysteine 4.3% of food; for Inguinal Fat Mass, Females / Perigonadal Fat Mass, Females / Inguinal Fat Mass, Males / Perigonadal Fat Mass, Males: OBS 4.3%, SPC 4.3% of food; for Total Body Mass, Males / Inguinal Fat Mass, Males / Perigonadal Fat Mass, Males: male mice; for Total Body Mass, Males: tryptophan dose not given
Experimental: (§1) Food and water were provided ad libitum.
(§2) Prior to blood collection, animals were fasted for 4 hours to establish a physiological baseline. Blood was then collected from the retro-orbital plexus and processed using EDTA-K2-coated blood collection tubes (Milian Dutscher Group; Geneva, Switzerland). The resulting plasma was frozen and stored at −80° C. until used for analysis. A portion of each blood sample was used for blood glucose determination using an Abbott Freestyle Lite glucometer and glucose strips (Abbott Diabetes Care, Inc.; Alameda, Calif.). At the end of each study, animals were fasted and bled, as described above. The mice were then sacrificed, their overall body condition was assessed, and certain physiological parameters were measured. The inguinal and perigonadal fat pads, as well as liver of each mouse, were harvested by surgical resection, weighed, flash frozen, and stored at −80° C.

plasma glucose = test: Experiment 2: high-fat diet with first compounds, plasma glucose; conditions: high-fat diet 9 weeks, untreated = 100%, lysine 6.45%, OBS 4.3%, SPC 4.3% of food; for Plasma Glucose, Females: female mice; for Plasma Glucose, Males: male mice
Experimental: as §1
as §2, with “Body mass and food consumption were monitored once a week for sixteen weeks. Prior” for “Prior”

insulin = test: Experiment 2: high-fat diet with first compounds, plasma insulin ELISA; conditions: high-fat diet 9 weeks, untreated = 100%, lysine 6.45%, OBS 4.3%, SPC 4.3% of food; for Plasma Insulin, Females: female mice; for Plasma Insulin, Males: male mice
Experimental: as §1
as §2, with “Body mass and food consumption were monitored once a week for sixteen weeks. Prior” for “Prior”
(§3) Enzyme-linked immunosorbent assay (ELISA) kits were obtained commercially and used to measure plasma levels of IGF-1 (R&D Systems; Minneapolis, Minn.), adiponectin (R&D Systems), FGF-21 (Millipore Corp.; Billerica, Mass.), leptin (R&D Systems), growth hormone (Millipore Corp.), and insulin (ALPCO Diagnostics; Salem, N.H.). Tests were performed according to the manufacturers' recommendations and measured using a Molecular Devices SpectraMax M5 Microplate Reader (Molecular Devices LLC; San Jose, Calif.). Two technical replicates were performed for each sample and the statistical significance of the resulting values determined by unpaired two-tailed t-tests using the software package Prism 8 (Graph-Pad Software; La Jolla, Calif.).

IGF-1 = test: Experiment 2: high-fat diet with first compounds, plasma IGF-1 ELISA; conditions: high-fat diet 9 weeks, untreated = 100%, lysine 6.45%, OBS 4.3%, SPC 4.3% of food; for Plasma IGF-1, Females: female mice; for Plasma IGF-1, Males: male mice
Experimental: as §1
as §2, with “Body mass and food consumption were monitored once a week for sixteen weeks. Prior” for “Prior”
as §3

leptin = test: Experiment 2: high-fat diet with first compounds, plasma leptin ELISA; conditions: high-fat diet 9 weeks, untreated = 100%, lysine 6.45%, OBS 4.3%, SPC 4.3% of food; for Plasma Leptin, Females: female mice; for Plasma Leptin, Males: male mice
Experimental: as §1
as §2, with “Body mass and food consumption were monitored once a week for sixteen weeks. Prior” for “Prior”
as §3

adiponectin = test: Experiment 2: high-fat diet with first compounds, plasma adiponectin ELISA; conditions: high-fat diet 9 weeks, untreated = 100%, lysine 6.45%, OBS 4.3%, SPC 4.3% of food; for Plasma Adiponectin, Females: female mice; for Plasma Adiponectin, Males: male mice
Experimental: as §1
as §2, with “Body mass and food consumption were monitored once a week for sixteen weeks. Prior” for “Prior”
as §3

FGF-21 = test: Experiment 2: high-fat diet with first compounds, plasma FGF-21 ELISA; conditions: female mice, high-fat diet 9 weeks, untreated = 100%; lysine 6.45%, OBS 4.3%, SPC 4.3% of food
Experimental: as §1
as §2, with “Body mass and food consumption were monitored once a week for sixteen weeks. Prior” for “Prior”
as §3

Row | Structure (SMILES) | Total Body Mass, Females (C57BL/6J mice) [%] | Inguinal Fat Mass, Females (C57BL/6J mice) [%] | Perigonadal Fat Mass, Females (C57BL/6J mice) [%] | Total Body Mass, Males (C57BL/6J mice) [%] | Inguinal Fat Mass, Males (C57BL/6J mice) [%] | Perigonadal Fat Mass, Males (C57BL/6J mice) [%] | Plasma Glucose, Females (plasma glucose) [%] | Plasma Glucose, Males (plasma glucose) [%] | Plasma Insulin, Females (insulin) [%] | Plasma Insulin, Males (insulin) [%] | Plasma IGF-1, Females (IGF-1) [%] | Plasma IGF-1, Males (IGF-1) [%] | Plasma Leptin, Females (leptin) [%] | Plasma Leptin, Males (leptin) [%] | Plasma Adiponectin, Females (adiponectin) [%] | Plasma Adiponectin, Males (adiponectin) [%] | Plasma FGF-21, Females (FGF-21) [%]
1 | NCCCC[C@H](N)C(=O)O [Lysine, lysine] | 72 | 38 | 37 | 91 | 42 | 34 | 73 | 84 | 41 | 22 | 66 | 68 | 28 | 13 | 125 | 92 | 144
2 | N[C@@H](COCc1ccccc1)C(=O)O [O-Benzyl-Serine, O-benzyl serine] | 69 | 27 | 25 | 89 | 42 | 31 | 71 | 93 | 37 | 28 | 79 | 72 | 20 | 12 | 106 | 108 | 280
